Converted amounts (≈) assume the structure as drawn. Like-named read-outs stand apart in the source and are kept apart here.

The test system of one data set is MRSA USA300. Kind of data set: Broth microdilution MIC, initial antibacterial screening. Particulars: MRSA USA300. The class given is cell-based, S. aureus. On the procedure:
(§1) The minimum inhibitory concentrations (MICs) of the tested compounds and control drugs against clinically-relevant bacterial strains were determined using the broth microdilution method, according to guidelines outlined by the Clinical and Laboratory Standards Institute (CLSI), or as described previously.
(§2) Initial screening of the bisphenylthiazoles against Gram-positive and Gram-negative bacteria. Bacterial strains, (except C. difficile that was grown anaerobically on brain heart infusion supplemented agar at 37° C for 48 hours), were grown aerobically overnight on tryptone soy agar plates at 37° C. Afterwards, a bacterial solution equivalent to 0.5 McFarland standard was prepared and diluted in cation-adjusted Mueller-Hinton broth (CAMHB) (for S. aureus, and E. coli) to achieve a bacterial concentration of about 5 × 10^5 CFU/mL. C. difficile was diluted in brain heart infusion supplemented broth, supplemented with yeast extract, hemin and vitamin K to achieve a bacterial concentration of about 5 × 10^5 CFU/mL. Compounds and control drugs were added in the first row of the 96 -well plates, and serially diluted with the corresponding media containing bacteria. Plates were then, incubated aerobi cally at 37° C for 18-20 hours (for S. aureus and E. coli). C. difficile was incubated anaerobically at 37° C for 48 hours. […]
(§3) the visual growth of bacteria.
For orientation: In broth dilution the organism is exposed to a series of concentrations in liquid medium.

The test system of data set [1] is C. difficile ATCC BAA1870. Description: Broth microdilution MIC, initial antibacterial screening (anaerobic). The class given is cell-based, Clostridioides difficile. The procedure: as §1, §2, §3
For data set [2], the system named is E. coli JW55031 (tolC-mutant). Description: microbe, parasite or virus in culture. The class given is cell-based, Escherichia coli. On the procedure:
as §1, §2, §3

Data set [3] concerns E. coli BW25113 (wild-type). Kind of data set: Broth microdilution MIC, initial antibacterial screening. The class given is cell-based, Escherichia coli. On the procedure:
as §1, §2, §3

Another data set concerns Candida albicans. Description: Antifungal broth microdilution MIC (50% growth inhibition) and MFC. The class given is cell-based. On the procedure: (§4) Serial dilutions (from 128 μg/mL to 0.06 μg/mL) of the tested compounds and control drugs (fluconazole, itraconazole and amphotericin) (in triplicates), were screened against clinical isolates of Candida albicans, Candida auris, Candida glabrata, Candida parapsilosis, Candida tropicalis, Candida krusei, Cryptococcus neoformans, Cryptococcus gattii and Aspergillus fumigatus species using the broth microdilution method according to the Clinical and Laboratory Standards Institute guidelines. MICs were determined as the lowest concentration of the compounds that inhibited the fungal growth by 50% after incubation at 35 °C for 24 h (for Candida and Aspergillus), or 48 h (for Cryptococcus). The minimum fungicidal concentration (MFC) of these compounds was tested by plating 4 μL from wells with no growth onto YPD agar plates. The plates were incubated at 37 °C for 24 hours before recording the MFC, which was categorized as the lowest concentration that reduced fungal growth by 99.9% [45]. The experiment was repeated three independent times.

A further data set concerns Candida auris. The description is as above. The class given is cell-based. On the procedure: as §4
For a further data set, the system named is Candida glabrata. The description is as above. Format: cell-based. On the procedure: as §4
In another data set the test system is Candida krusei. The description is as above. The class given is cell-based. The procedure:
as §4

A further data set relates to Candida tropicalis. Described as above. The class given is cell-based. Particulars: C. tropicalis ATCC 1369. The procedure:
as §4

For data set [4], the system named is Lactobacillus casei ATCC-334. Description: Broth microdilution MIC against normal human microbiota. Format: cell-based. As to conditions: Lactobacillus casei ATCC-334. The procedure:
(§5) Broth microdilution was utilized to determine the activity of bisphenylthiazoles against the human gut microflora as described elsewhere. A bacterial solution equivalent to 0.5 McFarland standards was prepared and diluted in MRS broth to achieve a bacterial concentration of approximately 5 x 10^5 CFU/mL. Then, compounds/control antifungals (in triplicates), were added to the plates and serially diluted with media containing bacteria. The plates were incubated for 48 hours at 37 °C before recording the MIC values. The experiment was repeated three independent times.

The test system of data set [5] is Lactobacillus crispatus HM-370. The data set is described as above. Format: cell-based. As to conditions: Lactobacillus crispatus HM-370. The procedure:
as §5

The subject of data set [6] is Lactobacillus gasseri HM-400. The description is as above. Format: cell-based. Particulars: Lactobacillus gasseri HM-400. The procedure:
as §5

A further data set relates to Cryptococcus gattii. Description: Antifungal broth microdilution MIC (50% growth inhibition, 48 h). Format: cell-based. The procedure:
as §4

For another data set, the system named is Cryptococcus neoformans. The data set is described as above. Format: cell-based. The procedure: as §4
A further data set relates to Aspergillus fumigatus. Kind of data set: Antifungal broth microdilution MIC (50% growth inhibition). Format: cell-based. The procedure:
as §4

Another data set has as its system Candida parapsilosis. The data set is described as above. Format: cell-based. On the procedure: as §4
Data set [7] has as its system human colorectal cells (Caco-2). Kind of data set: In vitro cytotoxicity, MTS assay. Particulars: Caco-2, 24 h exposure, MTS. On the procedure: (§6) Fig 2 In vitro cytotoxicity assay of bisphenylthiazole compounds 7, 16 and 17 (tested in triplicates at 32, 64 and 128 μg/mL) against: A) human colorectal cells (Caco-2), and B) monkey kidney epithelial cells (Vero) after 24-hours exposure time, using the MTS 3-(4,5-dimethylthiazol-2-yl)-5-(3-carboxymethoxyphenyl)-2-(4-sulfophenyl)-2H-tetrazolium) assay. The data represent the percentage of viable Caco-2 or Vero cells measured as the average absorbance relative to DMSO after exposure to the tested compounds. Dimethyl sulfoxide (DMSO) was used as a negative control. Error bars represent the standard deviation values.
(§7) To explore the tolerability of bisphenylthiazoles, their cytotoxicity profile was assessed in human colorectal adenocarcinoma (Caco-2) and monkey kidney epithelial cells (Vero) as described earlier. Briefly, compounds were incubated with the cells for 24 hours. Then, cells were incubated with MTS reagent for 3 hours before measuring the absorbance values (OD490). The experiment was repeated in two independent times.
Background: Formazan colour is commonly taken as a measure of viable cells.

Data set [8] concerns monkey kidney epithelial cells (Vero). Description: In vitro cytotoxicity, MTS assay. The procedure:
as §6, §7

Where [9] appears, read: Staphylococcus aureus, read-out: MIC.
The mark [10] stands for this setting: Clostridioides difficile, ATCCBAA1870, read-out: MIC.
The mark [11] stands for this setting: Escherichia coli, read-out: MIC.
Where [12] appears, read: Candida albicans, C. albicans SS5314 (wild-type), read-out: MIC.

As a reminder, the CC50 is the concentration that lowers cell viability or growth by half. As to `Cc1nc(-c2ccc(-c3ccccc3)cc2)sc1-c1nnc(N[C@@H]2CCCC[C@H]2N)o1` (relative stereo) [Compound 16, N-{5-[2-((1,1’-Biphenyl)-4-yl)-4-methylthiazol-5-yl]-1,3,4-oxadiazol-2-yl}cyclo-hexane-trans-1,2-diamine], the MIC in the data set on MRSA USA300 was 64 µg/mL (≈ 148 µM); in [1], 32 µg/mL (≈ 74.1 µM); in data set [2] (E. coli JW55031 (tolC-mutant)) it was 64 µg/mL (≈ 148 µM); in data set [3] it was more than 64 µg/mL; in the data set with Candida albicans it was 2 µg/mL (≈ 4.63 µM); with Candida albicans (C. albicans ATCC 10231), 4 µg/mL (≈ 9.27 µM). In addition, the MIC against Candida albicans (C. albicans SS5314 (wild-type)) amounted to 1 µg/mL (≈ 2.32 µM); against Candida auris (C. auris 381), 1 µg/mL (≈ 2.32 µM); in the data set with Candida auris (C. auris 382), 2 µg/mL (≈ 4.63 µM); against Candida auris (C. auris 383) it was 1 µg/mL (≈ 2.32 µM); against Candida auris (C. auris 384), 1 µg/mL (≈ 2.32 µM); against Candida auris (C. auris 385) it was 2 µg/mL (≈ 4.63 µM). Also, the MIC against Candida auris (C. auris 386) amounted to 1 µg/mL (≈ 2.32 µM); with Candida auris (C. auris 387) it was 2 µg/mL (≈ 4.63 µM); with Candida auris (C. auris 388), 1 µg/mL (≈ 2.32 µM); against Candida auris (C. auris 389) it was 2 µg/mL (≈ 4.63 µM); in the data set with Candida auris (C. auris 390), 1 µg/mL (≈ 2.32 µM); in the data set with Candida glabrata (C. glabrata ATCC 66032), 1 µg/mL (≈ 2.32 µM). Besides, the MIC with Candida glabrata (C. glabrata ATCC MYA-2950) is 1 µg/mL (≈ 2.32 µM); against Candida krusei (C. krusei ATCC 34135), 1 µg/mL (≈ 2.32 µM); against Candida krusei (C. krusei CAB 396420), 1 µg/mL (≈ 2.32 µM); in the data set on Candida tropicalis, 4 µg/mL (≈ 9.27 µM); in data set [4], more than 128 µg/mL; in [5], more than 128 µg/mL. In addition, the MIC in [6] is more than 128 µg/mL; with Cryptococcus gattii (C. gattii NR 43209), 1 µg/mL (≈ 2.32 µM); with Cryptococcus gattii (C. gattii NR 43210), 1 µg/mL (≈ 2.32 µM); with Cryptococcus neoformans (C. neoformans NR 41298), 1 µg/mL (≈ 2.32 µM); against Cryptococcus neoformans (C. neoformans NR 41300) it was 1 µg/mL (≈ 2.32 µM); with Cryptococcus neoformans (C. neoformans NR 48770) it was 1 µg/mL (≈ 2.32 µM). Moreover, the MIC was 4 µg/mL (≈ 9.27 µM) against Aspergillus fumigatus (A. fumigatus NR 35303), 4 µg/mL (≈ 9.27 µM) against Aspergillus fumigatus (A. fumigatus NR 35304), 1 µg/mL (≈ 2.32 µM) in the data set with Candida parapsilosis (C. parapsilosis ATCC 22019) and 1 µg/mL (≈ 2.32 µM) with Candida parapsilosis (C. parapsilosis CAB 502638). For the same compound, the “MIC against Aspergillus fumigatus” value in the data set with Aspergillus fumigatus (tested A. fumigatus isolates (Table 5)) came to 4 µg/mL (≈ 9.27 µM). The compound also showed a CC50 in data set [7] of more than 128 µg/mL. Also, the “concentration up to which non-toxic” value is not above 64 µg/mL in data set [7] and not above 64 µg/mL in data set [8] (Vero, 24 h exposure, MTS). Also, in data set [8] (relative to amphotericin B), the “times more tolerable than amphotericin B” value turned out to be 16 times.

What is called melting point is the temperature, or range, at which the solid turns liquid. As for `Cc1nc(-c2ccc(-c3ccccc3)cc2)sc1-c1nnc(NCCO)o1` [Compound 19, 2-{[5-(2-((1,1’-Biphenyl)-4-yl)-4-methylthiazol-5-yl)-1,3,4-oxadiazol-2-yl]amino} ethan-1-ol], the melting point was 210 to 213 °C. Besides, the MIC with MRSA USA300 (setting [9]) was more than 64 µg/mL. Also, the MIC in data set [1] (setting [10]) was found to be 64 µg/mL (≈ 169 µM). The same compound gave an MIC in [2] (Escherichia coli) of more than 64 µg/mL. In addition, the MIC in [3] (setting [11]) is more than 64 µg/mL. In addition, the MIC with Candida albicans (setting [12]) is more than 64 µg/mL.

The compound `Cc1nc(-c2ccc(-c3ccccc3)cc2)sc1-c1nnc(NC2CCNC2)o1` (stereo not drawn) [Compound 10, 5-{2-[(1,1’-Biphenyl)-4-yl]-4-methylthiazol-5-yl}-N-(pyrrolidin-3-yl)-1,3,4-oxadiazol-2-amine] had a melting point of 116 to 117 °C. For the same compound, the MIC in the data set on MRSA USA300 (setting [9]) is more than 64 µg/mL. In addition, the MIC in [1] (setting [10]) worked out at 32 µg/mL (≈ 79.3 µM). Further, the MIC in data set [2] (Escherichia coli) is more than 64 µg/mL. Further, in data set [3] (setting [11]), the MIC was more than 64 µg/mL. Besides, the MIC in the data set on Candida albicans (setting [12]) is 8 µg/mL (≈ 19.8 µM).

The compound `Cc1nc(-c2ccc(-c3ccccc3)cc2)sc1-c1nnc(N2CC[C@@H](N(C)C)C2)o1` [Compound 11, (R)-1-{5-[2-((1,1’-biphenyl)-4-yl)-4-methylthiazol-5-yl]-1,3,4-oxadiazol-2-yl}-N,N-dimethylpyrrolidin-3-amine] yielded a melting point of 165 to 167 °C. For the same compound, in the data set with MRSA USA300 (setting [9]), the MIC is more than 64 µg/mL. Further, the MIC in data set [1] (setting [10]) is more than 64 µg/mL. In data set [2] (Escherichia coli), this compound came in with an MIC of more than 64 µg/mL. Further, the MIC in data set [3] (setting [11]) was more than 64 µg/mL. Moreover, the MIC in the data set with Candida albicans (setting [12]) was more than 64 µg/mL.

As for `Cc1nc(-c2ccc(-c3ccccc3)cc2)sc1-c1nnc(N[C@H]2CC[C@H](N)CC2)o1` [Compound 18, trans-N-{5-[2-((1,1’-Biphenyl)-4-yl)-4-methylthiazol-5-yl]-1,3,4-oxadiazol-2-yl}cyclo-hexane-1,4-diamine], the melting point was in the range of 260 to 263 °C. Moreover, the MIC in the data set on MRSA USA300 (setting [9]) was found to be 32 µg/mL (≈ 74.1 µM). Further, the MIC in data set [1] (setting [10]) is 8 µg/mL (≈ 18.5 µM). This compound had an MIC in data set [2] (Escherichia coli) of 32 µg/mL (≈ 74.1 µM). For the same compound, the MIC in data set [3] (setting [11]) is more than 64 µg/mL. Moreover, the MIC in the data set on Candida albicans (setting [12]) was 16 µg/mL (≈ 37.1 µM).

For the origin of these results see publication PMC8568133, “Evaluation of bisphenylthiazoles as a promising class for combating multidrug-resistant fungal infections” (PLoS ONE, 2021).
